Results published in patent US20180016244A1, “DEUTERIUM-SUBSTITUTED OXADIAZOLES” (Auspex Pharmaceuticals, Inc., priority 2015, published 2018).

Test: In vitro human liver microsomal stability assay
Assay type: in vitro ADME
Settings: human liver microsomes 2 mg per mL protein, NADPH-generating system, 1 μM test compound, 37±1° C., 0-240 min, change relative to non-deuterated d0 (Example 1); for Half-Life % change over d0: degradation half-life
Description: In Vitro Liver Microsomal Stability Assay
Human liver microsomal stability assays were conducted at 2 mg per mL liver microsome protein with an NADPH-generating system consisting of NADP (1 mM, pH 7.4), […] (5 mM, pH 7.4), and glucose-6-phosphate dehydrogenase (I unit/mL).
Test compounds were prepared as solutions in DMSO and added to the assay mixture (1 μM, final concentration in incubation) to be incubated at 37±1° C. Reactions were initiated with the addition of cofactor and were stopped at 0, 60, 120, or 240 min after cofactor addition with stop reagent (0.2 mL acetonitrile). Samples were centrifuged (920×g for 10 min at 10° C.) in 96-well plates. Supernatant fractions were analyzed by LC-MS/MS to determine the percent remaining and estimate the degradation half-life of the test compounds.

| SMILES | Clearance % change over d0 | Half-Life % change over d0 |
| --- | --- | --- |
| CC(C)Oc1ccc(-c2nc(-c3cccc4c3CC[C@@H]4NCCO)no2)cc1C#N [Example 1, 5-[3-[(1S)-1-[(2-hydroxyethyl)amino]-2,3-dihydro-1H-inden-4-yl]-1,2,4-oxadiazol-5-yl]-2-(propan-2-yloxy)benzonitrile, reference compound] | 0.00% | 0.0% |
| [2H]C(C)(C)Oc1ccc(-c2nc(-c3cccc4c3CC[C@@H]4NCCO)no2)cc1C#N [Example 2, 5-[3-[(1S)-1-[(2-hydroxyethyl)amino]-2,3-dihydro-1H-inden-4-yl]-1,2,4-oxadiazol-5-yl]-2-[(2-^2H)propan-2-yloxy]benzonitrile] | 1% | −9.0% |
| [2H]C([2H])([2H])C([2H])(Oc1ccc(-c2nc(-c3cccc4c3CC[C@@H]4NC([2H])([2H])C([2H])([2H])O)no2)cc1C#N)C([2H])([2H])[2H] [Example 5, 5-[3-[(1S)-1-[[2-hydroxy(^2H7)ethyl]amino]-2,3-dihydro-1H-inden-4-yl]-1,2,4-oxadiazol-5-yl]-2-[(^2H4)propan-2-yloxy]benzonitrile] | 11% | 0.0% |
| [2H]C([2H])([2H])C([2H])(Oc1ccc(-c2nc(-c3cccc4c3CC[C@@H]4NCCO)no2)cc1C#N)C([2H])([2H])[2H] [Example 3, 5-[3-[(1S)-1-[(2-hydroxyethyl)amino]-2,3-dihydro-1H-inden-4-yl]-1,2,4-oxadiazol-5-yl]-2-[(^2H7)propan-2-yloxy]benzonitrile] | 7% | 0.0% |
| [2H]C(C)(C)Oc1ccc(-c2nc(-c3cccc4c3CC[C@]4([2H])NCCO)no2)cc1C#N [Example 6, 5-[3-[(1S)-1-[(2-hydroxyethyl)amino]-2,3-dihydro(1-^2H)-1H-inden-4-yl]-1,2,4-oxadiazol-5-yl]-2-[(2-^2H)propan-2-yloxy]benzonitrile] | 2% | 17.9% |
| [2H]C(C)(C)Oc1ccc(-c2nc(-c3cccc4c3CC[C@@H]4NC([2H])([2H])C([2H])([2H])O)no2)cc1C#N [Example 4, 5-[3-[(1S)-1-[[2-hydroxy(^2H4)ethyl]amino]-2,3-dihydro-1H-inden-4-yl]-1,2,4-oxadiazol-5-yl]-2-[(2-^2H)propan-2-yloxy]benzonitrile] | 5% | −4.6% |
